Test results published in patent publication US20250041476A1, “ENHANCED PERFORMANCE SOLUTION FOR TISSUE GRAFTS” (The Curators of the University of Missouri, priority 2020, published 2025).

How the values were obtained:
[1] = Modulated differential scanning calorimetry of tissue scaffolds; assay type: physicochemical
Description: Following crosslinking, five specimens (n=5) from the 7 treatment types were rinsed in DI water and placed in an aluminum pan with a hermetic lid. The treatment types were EDC/NHS, untreated, 15 minutes crosslinking with 3 mM genipin, 4 hours crosslinking with 3 mM genipin, 8 hours crosslinking with 3 mM genipin, 24 hours crosslinking with 3 mM genipin, and 24 hours crosslinking with 10 mM genipin. The 10 mM treatment type was added to verify that increasing the genipin concentration would further increase the amount of crosslinking that occurred. The reference pan consisted of an aluminum pan containing […] of double distilled water and sealed with a hermetic lid. Each specimen was then subjected to modulated differential scanning calorimetry using a Q2000 DSC (TA Instruments, New Castle, DE, USA) to raise the temperature from 5° C. to 120° C. at a rate of 5° C. per minute with a modulation of ±0.64° C. every 80 s. The mean denaturation temperature is reported.

integrin β1 = details: chondrocytes; cited from earlier work
[2] = test system: L929 mouse connective tissue fibroblasts; assay: Cell proliferation reagent WST-1 cell viability assay on scaffolds; assay type: cell-based; details: scaffolds crosslinked with 3 mM genipin
Description: L-929 mouse fibroblast cells were obtained from ATCC (Manassas, VA). They were cultured in EMEM (ATCC, Manassas, VA, USA) supplemented with 10% (v/v) horse serum (Sigma-Aldrich, St. Louis, MO, USA) and 200 U mL^−1 penicillin-streptomycin (Sigma-Aldrich, St. Louis, MO, USA) solution in an incubator at 37° C. and 5% CO2. 1 mL of 3×10^4 cell/mL cell solution was plated on each scaffold and allowed to grow for 1, 3, 7, or 10 days with fresh media being replaced every […].
Cell proliferation reagent WST-1 (Roche Diagnostics Corporation, Indianapolis, IN, USA) was used to evaluate the biocompatibility of the scaffolds. The WST-1 assay works via the use of tetrazolium salts. The salts were added to wells containing cells and the tissue discs. The tetrazolium salts were then cleaved to formazan by mitochondrial dehydrogenase activity. This correlates to the number of metabolically active cells. The resulting formazan was quantified using UV-vis absorbance measurements. […] After gentle mixing, 100 μL was removed from each well and absorbance readings were acquired using a Tecan Safire II plate reader. The resulting values were then calculated relative to the absorbance found on the untreated control scaffold. […]

For `COC(=O)C1=CO[C@@H](O)[C@@H]2C(CO)=CC[C@H]12` [genipin, methyl (1S,2R,6S)-2-hydroxy-9-(hydroxymethyl)-3-oxabicyclo[4.3.0]nona-4,8-diene-5-carboxylate], the “Denaturation temperature of tissue scaffold” value ([1]; 15 minutes of genipin crosslinking, 3 mM, vs untreated) was “significantly increases”, the “Denaturation temperature of tissue scaffold” value ([1]; 24 hours of crosslinking, 3 mM genipin) was “significant increase” and the “Denaturation temperature of tissue scaffold” value ([1]; higher genipin concentration (10 mM vs 3 mM), 24 hours) was “significantly increased”. The “mRNA expression of integrin β1” value (integrin β1) was “halved” and the “Cytotoxicity (biocompatibility results)” value [2] was “not cytotoxic”.
